Assay results taken from US12252524B2, “GIP/GLP1 co-agonist compounds” (Eli Lilly and Company, priority 2018, dated 2025).
Numbered stars: 1 amine (or outer) side, 2 acyl side, 3 side chain; on linkers, the order of the positions; unused ones are H or OH. Square brackets hold non-standard residues; d marks the D form. Side chains are listed from the residue outwards. Peptide text beside a SMILES is read from it. * marks the point of attachment. C20 diacid = O=C(O)CCCCCCCCCCCCCCCCCCC(=O)*; C18 diacid = O=C(O)CCCCCCCCCCCCCCCCC(=O)*; αMePhe(2-F) = C[C@](N)(Cc1ccccc1F)C(=O)O; γGlu = O=C(O)[C@H](CCC(=O)[*:2])N[*:1]; 3Pal = N[C@@H](Cc1cccnc1)C(=O)O; 4Pal = N[C@@H](Cc1ccncc1)C(=O)O; αMeL = CC(C)C[C@](C)(N)C(=O)O; AEEA = NCCOCCOCC(=O)O; Aib = CC(C)(N)C(=O)O

Legend:
human Gcg receptor = target: T1, human Gcg receptor (Homo sapiens, UniProt P47871); assay: [125I]-Glucagon binding (SPA), human Gcg receptor; conditions: read-out: hGLcgR Ki, nM (SEM, n)
T1 construct: expressed in transfected cells; crude membranes
T1 sequence (P47871 26-477): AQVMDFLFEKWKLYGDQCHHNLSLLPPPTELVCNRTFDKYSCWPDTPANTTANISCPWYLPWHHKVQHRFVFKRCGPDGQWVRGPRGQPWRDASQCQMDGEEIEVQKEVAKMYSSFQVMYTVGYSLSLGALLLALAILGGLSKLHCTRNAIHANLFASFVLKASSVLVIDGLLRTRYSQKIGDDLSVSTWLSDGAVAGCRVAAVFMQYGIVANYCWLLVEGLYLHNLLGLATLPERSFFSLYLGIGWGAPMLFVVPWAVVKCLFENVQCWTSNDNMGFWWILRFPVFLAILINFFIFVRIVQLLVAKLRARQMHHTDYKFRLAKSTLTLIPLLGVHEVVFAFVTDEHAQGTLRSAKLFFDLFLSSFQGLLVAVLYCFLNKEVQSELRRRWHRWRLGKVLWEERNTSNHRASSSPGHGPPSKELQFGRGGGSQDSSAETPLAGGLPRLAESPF
Description: (§1) Two methods are used for the preparation of crude cell membranes.
(§2) Method 1: Frozen cell pellets are lysed on ice in hypotonic buffer containing 50 mM Tris HCl, pH 7.5, and Roche Complete™ Protease Inhibitors with EDTA. The cell suspension is disrupted using a glass Potter-Elvehjem homogenizer fitted with a Teflon® pestle for 25 strokes. The homogenate is centrifuged at 4° C. at 1100×g for 10 minutes. The supernatant is collected and stored on ice while the pellets are resuspended in homogenization buffer and rehomogenized as described above. The homogenate is centrifuged at 1100×g for 10 minutes. The second supernatant is combined with the first supernatant and centrifuged at 35000×g for 1 hour at 4° C. The resulting membrane pellet is resuspended in homogenization buffer containing protease inhibitors at approximately 1 to 3 mg/mL, quick frozen in liquid nitrogen and stored as aliquots in a−80° C. freezer until use.
(§3) Method 2: Frozen cell pellets are lysed on ice in hypotonic buffer containing 50 mM Tris HCl, pH 7.5, 1 mM MgCl2, Roche Complete™ EDTA-free Protease Inhibitors and 25 units/ml DNAse I (Invitrogen). The cell suspension is disrupted using a glass Potter-Elvehjem homogenizer fitted with a Teflon® pestle for 20 to 25 strokes. The homogenate is centrifuged at 4° C. at 1800×g for 15 minutes. The supernatant is collected and stored on ice while the pellets are resuspended in homogenization buffer (without DNAse I) and rehomogenized as described above. The homogenate is centrifuged at 1800×g for 15 minutes. The second supernatant is combined with the first supernatant and centrifuged an additional time at 1800×g for 15 minutes. The overall supernatant is then centrifuged at 25000×g for 30 minutes at 4° C. The resulting membrane pellet is resuspended in homogenization buffer (without DNAse I) containing protease inhibitors at approximately 1 to 3 mg/mL and stored as aliquots in a−80° C. freezer until use.
The human Gcg receptor binding assays are performed using a Scintillation Proximity Assay (SPA) format with wheat germ agglutinin (WGA) beads (Perkin Elmer). The binding buffer contains 25 mM 4-(2-hydroxyethyl)-1-piperazineethanesulfonic acid (HEPES), pH 7.4, 2.5 mM CaCl2, 1 mM MgCl2, 0.1% (w/v) bacitracin (Research Products), 0.003% (w/v) Polyoxyethylenesorbitan monolaurate (TWEEN©-20), and Roche Complete™ Protease Inhibitors without EDTA. […] Plates are sealed and mixed on a plate shaker (setting 6) for 1 minute and read with a PerkinElmer Trilux MicroBeta© scintillation counter after 12 hours of incubation/settling time at room temperature.
(§4) Data are analyzed using four-parameter (curve maximum, curve minimum, IC50, Hill slope) nonlinear regression routines (Genedata Screener, version 12.0.4, Genedata AG, Basal, Switzerland). […] Values for Ki are reported as the geometric mean, with error expressed as the standard error of the mean (SEM) and n is equal to the number of independent replicates (determined in assays performed on different days). […] The Ki Ratio is a rapid indication of the apparent affinity of a peptide compared to the native control peptide. […] SEM is only calculated when n=2 or greater non-qualified results exist. Means are expressed as GeoMetric means with the standard error of the mean (SEM) and the number of replicates (n) indicated in parenthesis.

human GIP receptor = target: T2, human GIP receptor (Homo sapiens, UniProt P48546); assay: [125I]-GIP binding (SPA), human GIP receptor; conditions: read-out: hGIPR Ki, nM (SEM, n)
T2 construct: expressed in transfected cells; crude membranes
T2 sequence (P48546 22-466): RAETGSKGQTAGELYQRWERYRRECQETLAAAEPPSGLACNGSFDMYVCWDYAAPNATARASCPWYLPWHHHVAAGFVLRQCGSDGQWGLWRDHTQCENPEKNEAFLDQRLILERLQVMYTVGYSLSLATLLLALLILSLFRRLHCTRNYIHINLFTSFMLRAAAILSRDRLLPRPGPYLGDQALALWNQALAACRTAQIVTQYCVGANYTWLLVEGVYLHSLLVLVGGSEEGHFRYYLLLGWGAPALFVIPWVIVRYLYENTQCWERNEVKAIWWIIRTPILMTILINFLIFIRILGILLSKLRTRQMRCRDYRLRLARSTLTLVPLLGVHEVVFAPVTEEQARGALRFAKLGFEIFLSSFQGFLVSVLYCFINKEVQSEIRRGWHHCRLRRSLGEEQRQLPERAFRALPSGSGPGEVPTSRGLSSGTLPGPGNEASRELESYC
Description: as §1, §2, §3
The binding buffer contains 25 mM HEPES, pH 7.4, 2.5 mM CaCl2, 1 mM MgCl2, 0.1% (w/v) bacitracin, 0.003% (w/v) TWEEN©-20, and Roche Complete™ Protease Inhibitors without EDTA. Peptides and GIP are thawed and 3 fold serially diluted in 100% DMSO (10 point concentration response curves). […] Plates are sealed and mixed on a plate shaker (setting 6) for 1 minute and read with a PerkinElmer Trilux MicroBeta© scintillation counter after 2.5 to 12 hours of incubation/settling time at room temperature.
as §4

human GLP-1R = human GLP-1R (Homo sapiens, UniProt P43220); assay: [125I]-GLP-1 binding (SPA), human GLP-1 receptor; design: expressed in transfected cells; crude membranes; conditions: read-out: hGLP1R Ki, (nM) (SEM, n)
human GLP-1R, sequence (P43220 24-463): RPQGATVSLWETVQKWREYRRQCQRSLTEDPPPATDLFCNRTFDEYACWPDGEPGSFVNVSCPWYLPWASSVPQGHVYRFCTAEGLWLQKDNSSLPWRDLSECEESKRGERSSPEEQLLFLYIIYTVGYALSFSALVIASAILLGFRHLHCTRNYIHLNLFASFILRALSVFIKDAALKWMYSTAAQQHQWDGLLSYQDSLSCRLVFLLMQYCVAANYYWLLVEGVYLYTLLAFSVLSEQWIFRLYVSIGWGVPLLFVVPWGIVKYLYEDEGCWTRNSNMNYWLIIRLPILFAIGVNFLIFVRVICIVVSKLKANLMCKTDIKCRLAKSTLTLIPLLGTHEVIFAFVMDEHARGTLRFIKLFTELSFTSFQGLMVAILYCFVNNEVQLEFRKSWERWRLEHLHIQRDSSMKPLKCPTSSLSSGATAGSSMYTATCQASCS
Description: as §1, §2, §3
The binding buffer contains 25 mM HEPES, pH 7.4, 2.5 mM CaCl2, 1 mM MgCl2, 0.1% (w/v) bacitracin, 0.003% (w/v) TWEEN©-20, and Roche Complete™ Protease Inhibitors without EDTA.
as §4

[1] = target: T3, gastric inhibitory peptide receptor (GIPR) (Homo sapiens, UniProt P48546); assay: cAMP pharmacological functional assay in presence of casein, hGIPR; assay type: cell-based; conditions: HEK293 cells expressing hGIPR, 0.1% Casein, geometric mean; read-out: hGIPR cAMP Rel EC50 nM (SEM, n)
T3 sequence (P48546 22-466): T2 sequence (P48546 22-466)

[2] = target: human GLP-1 receptor (GLP-1R) (Homo sapiens, UniProt P43220); assay: cAMP pharmacological functional assay in presence of casein, hGLP-1R; assay type: cell-based; conditions: HEK293 cells expressing hGLP-1R, 0.1% Casein, geometric mean; read-out: hGLP1R cAMP Rel EC50 nM (SEM, n)
human GLP-1 receptor (GLP-1R), sequence (P43220 24-463): as above

CC[C@H](C)[C@H](NC(=O)[C@H](CC(C)C)NC(=O)[C@H](Cc1ccc(O)cc1)NC(=O)[C@@H](CCC(=O)O)NC(=O)[C@@H](NC(=O)[C@H](Cc1ccccc1)NC(=O)[C@H](CCC(=O)O)NC(=O)C(C)(C)NC(=O)[C@H](CCC(N)=O)NC(=O)[C@H](C)NC(=O)[C@H](CCCCNC(=O)COCCOCCNC(=O)COCCOCCNC(=O)CC[C@H](NC(=O)CCCCCCCCCCCCCCCCCCC(=O)O)C(=O)O)NC(=O)[C@H](CCC(=O)O)NC(=O)[C@H](CC(=O)O)NC(=O)[C@H](CC(C)C)NC(=O)[C@](C)(CC(C)C)NC(=O)[C@@H](NC(=O)[C@H](CO)NC(=O)[C@H](Cc1cccnc1)NC(=O)[C@H](CC(=O)O)NC(=O)[C@H](CO)NC(=O)[C@@H](NC(=O)[C@](C)(Cc1ccccc1F)NC(=O)[C@@H](NC(=O)CNC(=O)[C@H](CCC(=O)O)NC(=O)C(C)(C)NC(=O)[C@@H](N)Cc1ccc(O)cc1)[C@@H](C)O)[C@@H](C)O)[C@@H](C)CC)[C@@H](C)CC)C(=O)N[C@@H](CCC(=O)O)C(=O)NCC(=O)NCC(=O)N1CCC[C@H]1C(=O)N[C@@H](CO)C(=O)N[C@@H](CO)C(=O)NCC(=O)N[C@@H](C)C(=O)N1CCC[C@H]1C(=O)N1CCC[C@H]1C(=O)N1CCC[C@H]1C(=O)N[C@@H](CO)C(N)=O [Example 181] (H-Y[Aib]EGT[αMePhe(2-F)]TSD[3Pal]SI[αMeL]LDEK([AEEA-AEEA-γGlu-C20 diacid])AQ[Aib]EFI[dE]YLIEGGPSSGAPPPS-NH2)
Ki (human Gcg receptor): 413 nM
Ki (human GIP receptor): 0.145 nM
Ki (human GLP-1R): 7.28 nM

CC[C@H](C)[C@H](NC(=O)[C@H](CC(C)C)NC(=O)[C@H](Cc1ccc(O)cc1)NC(=O)[C@@H](CCC(=O)O)NC(=O)[C@@H](NC(=O)[C@H](Cc1ccccc1)NC(=O)[C@H](CCC(=O)O)NC(=O)C(C)(C)NC(=O)[C@H](CCC(N)=O)NC(=O)[C@H](C)NC(=O)[C@H](CCCCNC(=O)COCCOCCNC(=O)COCCOCCNC(=O)CC[C@H](NC(=O)CCCCCCCCCCCCCCCCCCC(=O)O)C(=O)O)NC(=O)[C@H](CCC(=O)O)NC(=O)[C@H](CC(=O)O)NC(=O)[C@H](CC(C)C)NC(=O)[C@](C)(CC(C)C)NC(=O)[C@@H](NC(=O)[C@H](CO)NC(=O)[C@H](Cc1ccncc1)NC(=O)[C@H](CC(=O)O)NC(=O)[C@H](CO)NC(=O)[C@@H](NC(=O)[C@](C)(Cc1ccccc1F)NC(=O)[C@@H](NC(=O)CNC(=O)[C@H](CCC(=O)O)NC(=O)C(C)(C)NC(=O)[C@@H](N)Cc1ccc(O)cc1)[C@@H](C)O)[C@@H](C)O)[C@@H](C)CC)[C@@H](C)CC)C(=O)N[C@@H](CCC(=O)O)C(=O)NCC(=O)NCC(=O)N1CCC[C@H]1C(=O)N[C@@H](CO)C(=O)N[C@@H](CO)C(=O)NCC(=O)N[C@@H](C)C(=O)N1CCC[C@H]1C(=O)N1CCC[C@H]1C(=O)N1CCC[C@H]1C(=O)N[C@@H](CO)C(N)=O [Example 182] (H-Y[Aib]EGT[αMePhe(2-F)]TSD[4Pal]SI[αMeL]LDEK([AEEA-AEEA-γGlu-C20 diacid])AQ[Aib]EFI[dE]YLIEGGPSSGAPPPS-NH2; N-terminus assumed)
Ki (human Gcg receptor): 565 nM
Ki (human GIP receptor): 0.0669 nM
EC50 [1]: 0.0442 nM
Ki (human GLP-1R): 4.64 nM

CC[C@H](C)[C@H](NC(=O)[C@H](CC(C)C)NC(=O)[C@H](Cc1ccc(O)cc1)NC(=O)[C@@H](CCC(=O)O)NC(=O)[C@@H](NC(=O)[C@H](Cc1ccccc1)NC(=O)[C@H](CCC(=O)O)NC(=O)C(C)(C)NC(=O)[C@H](CCC(N)=O)NC(=O)[C@H](C)NC(=O)[C@H](CCCCNC(=O)COCCOCCNC(=O)COCCOCCNC(=O)CC[C@H](NC(=O)CCCCCCCCCCCCCCCCCCC(=O)O)C(=O)O)NC(=O)[C@H](CCC(=O)O)NC(=O)[C@H](CC(=O)O)NC(=O)[C@H](CC(C)C)NC(=O)[C@](C)(CC(C)C)NC(=O)[C@@H](NC(=O)[C@H](CO)NC(=O)[C@H](CC(C)C)NC(=O)[C@H](CC(=O)O)NC(=O)[C@H](CO)NC(=O)[C@@H](NC(=O)[C@](C)(Cc1ccccc1F)NC(=O)[C@@H](NC(=O)CNC(=O)[C@H](CCC(=O)O)NC(=O)C(C)(C)NC(=O)[C@@H](N)Cc1ccc(O)cc1)[C@@H](C)O)[C@@H](C)O)[C@@H](C)CC)[C@@H](C)CC)C(=O)N[C@@H](CCC(=O)O)C(=O)NCC(=O)NCC(=O)N1CCC[C@H]1C(=O)N[C@@H](CO)C(=O)N[C@@H](CO)C(=O)NCC(=O)N[C@@H](C)C(=O)N1CCC[C@H]1C(=O)N1CCC[C@H]1C(=O)N1CCC[C@H]1C(=O)N[C@@H](CO)C(N)=O [Example 183] (H-Y[Aib]EGT[αMePhe(2-F)]TSDLSI[αMeL]LDEK([AEEA-AEEA-γGlu-C20 diacid])AQ[Aib]EFI[dE]YLIEGGPSSGAPPPS-NH2)
Ki (human Gcg receptor): 304 nM
Ki (human GIP receptor): 0.0869 nM
EC50 [1]: 0.0615 nM
Ki (human GLP-1R): 4.11 nM

CC[C@H](C)[C@H](NC(=O)[C@H](CC(C)C)NC(=O)[C@H](Cc1ccc(O)cc1)NC(=O)[C@@H](CCC(=O)O)NC(=O)[C@@H](NC(=O)[C@H](Cc1ccccc1)NC(=O)[C@H](CCC(=O)O)NC(=O)C(C)(C)NC(=O)[C@H](CCC(N)=O)NC(=O)[C@H](C)NC(=O)[C@H](CCCCNC(=O)COCCOCCNC(=O)COCCOCCNC(=O)CC[C@H](NC(=O)CCCCCCCCCCCCCCCCC(=O)O)C(=O)O)NC(=O)[C@H](CCC(=O)O)NC(=O)[C@H](CC(=O)O)NC(=O)[C@H](CC(C)C)NC(=O)[C@](C)(CC(C)C)NC(=O)[C@@H](NC(=O)[C@H](CO)NC(=O)[C@H](Cc1ccncc1)NC(=O)[C@H](CC(=O)O)NC(=O)[C@H](CO)NC(=O)[C@@H](NC(=O)[C@](C)(Cc1ccccc1F)NC(=O)[C@@H](NC(=O)CNC(=O)[C@H](CCC(=O)O)NC(=O)C(C)(C)NC(=O)[C@@H](N)Cc1ccc(O)cc1)[C@@H](C)O)[C@@H](C)O)[C@@H](C)CC)[C@@H](C)CC)C(=O)N[C@@H](CCC(=O)O)C(=O)NCC(=O)NCC(=O)N1CCC[C@H]1C(=O)N[C@@H](CO)C(=O)N[C@@H](CO)C(=O)NCC(=O)N[C@@H](C)C(=O)N1CCC[C@H]1C(=O)N1CCC[C@H]1C(=O)N1CCC[C@H]1C(=O)N[C@@H](CO)C(N)=O [Example 204] (H-Y[Aib]EGT[αMePhe(2-F)]TSD[4Pal]SI[αMeL]LDEK([AEEA-AEEA-γGlu-C18 diacid])AQ[Aib]EFI[dE]YLIEGGPSSGAPPPS-NH2)
Ki (human Gcg receptor): > 1150 nM
Ki (human GIP receptor): 0.0704 nM
EC50 [2]: 0.0654 nM
EC50 [1]: 0.0424 nM
